Laboratory results from patent US12193465B2, “Materials and methods for extending shelf-life of foods” (JP Laboratories, Inc., priority 2021, dated 2025).

Key:
[1] = system: parval, methi, coriander, radish, guar; assay: Shriveling / wilting / dehydration / becoming wet of produce; details: Example 130, Wilting, Coriander, 1 hr P-E, control 11 days
Text: (§1) Most of the foods changed color or texture.
(§2) The assembly was shaken periodically.

[2] = Color change / browning / yellowing of foods (keeping produce green longer)
Protocol: (§3) All studies were conducted at a room temperature of about 25° C. To determine the effectiveness of a shelf-life extender, a control sample which was untreated with any shelf-life extenders, was tested identical to the test samples. […] All studies in those Examples of Tables 1-6 were conducted in closed plastic or glass containers. Containers, such as plastic containers, without or with lids having holes can be used if it is advantageous to let excess moisture escape or to prevent condensation of moisture released by some produce.
(§4) Food exposed to preservatives or by a sachet was placed in typically polystyrene or acrylic containers depending upon the size and number of food items. Glass jars and bottles were also used. The containers were snap-closed or with a lid. The containers were purchased mainly from Amazon or Webstaurant.com store. When needed, plastic containers with holes or without lids were used.
(§5) For controlled exposure and a constant supply of a preservative to foods, sachets containing one or more drops of preservatives were used. Sachets were made by placing an appropriate amount of a preservative in a plastic bag containing a piece of paper and heat sealing the bag. The sachet bag materials used were Tyvek® for solid preservative, polyethylene, polyester and high barrier multilayer films were used for liquid preservatives. These bags were sealed with a heat sealer. The sachet was typically applied on one side of the container containing food.
(§6) A piece of paper napkin was taped inside a 100 microns thick polyethylene or polyester Ziploc bag. The size of the bag varied from ˜20 cm×30 cm to ˜60 cm×90 cm depended on the sample with sandwich bags up to gallon bags being exemplary. The paper napkin was wetted with 0.1-0.5 ml of a preservative or a mixture of preservatives. A tray of aluminum, stainless steel or glass containing the foods was placed inside the plastic (polyethylene, polyester and multilayer-laminated) bag and almost closed by locking the Ziploc. Air was blown with an air blower from the unclosed end until the bag was fully blown and then quickly closed tightly by locking the remaining Ziploc. If a preservative was a sublimable solid, it was placed in a petri dish and then placed inside the bag in the tray before blowing air. The exposure time was varied from five minutes to a day depending upon the food. […] The assembly was shaken periodically. After the predetermined time, the tray containing produce was removed from the bag, allowed to de-gas for 10-30 minutes in air and the produce was then placed in an appropriately sized container. Glass and stainless steel containers with lids were also often used.
(§7) A solution of one or more preservatives was prepared in a large (e.g., 2-10 liter) glass beaker or a jar. A sack containing the food was prepared by placing the food in a plastic mesh bag. The sack was placed in the solution of the preservative. A smaller glass beaker containing proper amount of water was place over the package to keep the sack soaked in the solution of the preservative during the treatment. The solution was stirred either with a plastic spatula or with a magnet over a magnetic stirrer. After treatment, the mesh sack was removed, the produce was washed in a tray with running water, strained and air dried at 30° C. in an air blowing oven for about 5-10 minutes, while shaking the tray or turning the food periodically followed by placing the sample in an appropriate container.
(§8) The food was placed in mesh trays and sprayed with an aqueous solution (1-10%) of a preservative while shaking the tray or turning the food. The solution was allowed to drain from the tray and the food was air dried in an air blowing oven at 30° C. for about 5-10 minutes, while shaking the tray or turning food periodically followed by placing the sample in an appropriate container.

avocado = assay: Softening / rotten inside (spoiled flesh) of avocado
Text: as §1, §2

cut lilies = assay: Keeping cut flowers longer (browning of petals); details: Example 118, 0.01% solution, control <12 days
Text: Other preservative tested with flowers include: cyclohexanone, 2-cyclohexen-1-one, 1-methyl-1-cyclopentene, 3-methoxyphenylboronic acid, 3-chlorophenylboronic acid, benzyl ether, choline chloride and hydrogen sulfide. Flowers can be exposed to very low concentration, e.g., in ppm, of vapor of the shelf-life extenders to keep them fresher longer.

fungus = assay: Fungus growth on treated foods stored in closed containers at room temperature; details: for Spoilage Time - Sample: Fungus; for Effectiveness on ginger: pre-exposure and sachet method
Text: as §1
Glass jars and bottles were also used. The containers were snap-closed or with a lid.
(§9) These bags were sealed with a heat sealer.
as §2

[3] = system: grains, legumes, potatoes, garlic; assay: Germination / sprouting of grains, legumes and tubers; details: for Spoilage Time - Sample: Example 129, Sprouting, Small yellow potatoes, Sachet, 100% relative humidity, control 8 days
Text: as §9, §2

[4] = system: green tomato, papaya, banana, mango, peppers, tindora; assay: Ripening of fruits and vegetables (delayed or expedited); details: Ripening, Green tomato, 2 hrs P-E
Protocol: as §3, §5, §6, §7
The untreated (control sample) and treated food were placed in proper sized plastic containers and the containers were tightly closed.
The following major criteria were used for determining spoilage of foods: growth of fungus, color change, unpleasant odor, wilting, firmness or shriveling, change of state (liquid to solid or vice versa), and sprouting or germination Example 10: Sources of food.

[5] = General shelf-life extension of foods (spoilage criteria of Example 9); details: for Effectiveness for controlling one or more spoilage criteria: variety of foods
Protocol: as §3, §4, §5, §6, §7, §8

[6] = Color loss of meat and fish; details: meat and fish
Text: as §1, §9

SMILES: CC(=O)CC(C)=O [AA, Acetylacetone]
- Spoilage Time - Sample [1]: 21+ days
- Spoilage Time - Sample ([1]; listed as acetylacetone): > 21 days
- Spoilage Time - Sample ([2]; Example 119, Color change, Parsley, 0.25 hr P-E, control 7 days): 21+ days
- Spoilage Time - Sample ([2]; Example 119, Color change, Parsley, 0.25 hr P-E, control 7 days, listed as acetylacetone): > 21 days
- Spoilage Time - Sample (avocado; Example 127, Rotten inside, Avocado, 1 hr P-E, control 7 days): 9 days
- Spoilage Time - Sample (avocado; Example 127, Rotten inside, Avocado, 1 hr P-E, control 7 days, listed as acetylacetone): > 9 days
- Spoilage Time - Sample (avocado; Example 128, Rotten inside, Haas Avocado, 1 hr P-E, control 11 days): 11 days
- Spoilage Time - Sample (cut lilies): 12+ days
- Spoilage Time - Sample (cut lilies; listed as acetylacetone): > 12 days
- Spoilage Time - Sample (fungus; Example 120, Farmer's cheese, 0.5 hr P-E, control 5 days): 34 days
- Spoilage Time - Sample (fungus; Example 120, Farmer's cheese, 0.5 hr P-E, control 5 days, listed as Acetylacetone): delayed the growth of fungus
- Spoilage Time - Sample (fungus; Example 122, Raw milk Ricotta cheese, Sachet, control 3 days): 35 days
- Spoilage Time - Sample (fungus; Example 123, Raspberry, 1 hr P-E, control 5 days): 31 days
- Spoilage Time - Sample (fungus; Example 124, Yellow pearl onions, Sachet, control 24 days): 48 days
- Effectiveness on ginger (fungus): found effective
- Fungus growth (fungus; strawberries, raspberries, blackberries and lychee): either prevented or significantly delayed
- Spoilage Time - Sample [3]: 48+ days
- Spoilage Time - Sample ([3]; listed as acetylacetone): > 48 days
- Spoilage Time - Sample ([4]; Example 126, control 14 days): 18 days
- Spoilage Time - Sample ([4]; Example 126, control 14 days, listed as acetylacetone): significantly delayed
- Shelf-life of flowery vegetables [5]: extended shelf-life
- Effectiveness for controlling one or more spoilage criteria [5]: effective to a greater or lesser extent

SMILES: O=C1CCCCC1 [CY, Cyclohexanone]
- Spoilage Time - Sample ([2]; Example 92, Browning, Coriander, Sachet, control 11 days): 11+ days
- Spoilage Time - Sample ([2]; Example 92, Browning, Coriander, Sachet, control 11 days, listed as cyclohexanone): significantly delayed
- Spoilage Time - Sample (avocado; Example 107, Softening, Florida avocado, 2 hrs P-E, control 2 days): 2 days
- Spoilage Time - Sample (avocado; Example 108, Softening, Avocado, 2 hrs P-E, control 2 days): 2 days
- Spoiling of the flesh with development of fungus (avocado; avocados, Examples 77, 78, 107, 108, 113 & 171): significantly delayed
- Spoilage Time - Sample (fungus; Example 93, Raspberry, Sachet, control 5 days): 9 days
- Spoilage Time - Sample (fungus; Example 95, Blueberry, Sachet, control 5 days): 67 days
- Spoilage Time - Sample (fungus; Example 96, Farmer's cheese, 0.5 hr P-E, control 5 days): 34 days
- Spoilage Time - Sample (fungus; Example 96, Farmer's cheese, 0.5 hr P-E, control 5 days, listed as cyclohexanone): delayed the growth of fungus
- Spoilage Time - Sample (fungus; Example 98, Lychee, Sachet, control 3 days): 31 days
- Spoilage Time - Sample (fungus; Example 99, Cheesecake, Sachet, control 6 days): 8+ days
- Spoilage Time - Sample (fungus; Example 100, Puri, 16 hrs P-E, control 5 days): 70+ days
- Spoilage Time - Sample (fungus; Example 101, Rotala, 16 hrs P-E, control 5 days): 70+ days
- Spoilage Time - Sample (fungus; Example 102, Monterey cheese, Sachet, control 7 days): 10+ days
- Spoilage Time - Sample (fungus; Example 102, Monterey cheese, Sachet, control 7 days, listed as cyclohexanone): either prevented or significantly delayed
- Fungus growth (fungus; Indian millet bread, Indian wheat bread (roti), cheesecake, sachet or pre-exposure to vapors): either prevented or significantly delayed
- Effectiveness on ginger (fungus): found effective
- Effectiveness at extending the shelf-life of potatoes ([3]; potatoes): effective
- Spoilage Time - Sample ([4]; Example 106, control 10 days): 18 days
- Improvements with meat and fish [6]: demonstrated improvements
- Shelf-life of flowery vegetables [5]: extended shelf-life
- Shelf-life of shelled and unshelled peanuts ([5]; peanuts): extended
- Effectiveness as shelf-life extender ([5]; tofu): effective
- Effectiveness for controlling one or more spoilage criteria [5]: effective to a greater or lesser extent
